Values quoted from earlier work, collected in patent US20040052761A1, “Localized delivery system for cancer drugs, phenstatin, using N-isopropylacrylamide” (priority 2002, published 2004).

Key:
tubulin [1] = conditions: reference (1)
tubulin [2] = conditions: reference (1); remark: listed apart in the source

## COc1ccc(C(=O)c2cc(OC)c(OC)c(OC)c2)cc1O [Phenstatin]
Tubulin [1]
  inhibition of the binding of colchicines to tubulin: potent inhibitor
Tubulin [2]
  inhibition of tubulin polymerization: potent inhibitor
